Results as given in article PMC10709327, “A class of secreted mammalian peptides with potential to expand cell-cell communication” (Nature Communications, 2023).
Where “and” joins values, the source holds several entries; their conditions need not be identical. Equal values may be shown once. Where a SMILES comes first, the peptide text is derived from it. [ ]: non-standard residue; d: D form. pGlu = O=C1CC[C@@H](C(=O)O)N1

Experiments:
[1] = system: diet-induced obese male mice; experiment: Metabolic chamber studies after a single dose (food intake, RER, movement, VO2, VCO2); type: in vivo, mouse; conditions: single dose 50 mg/kg intraperitoneal
Procedure: Fig. 5 Functional studies of […] in feeding and energy balance in mice. a Schematic of the primary amino acid sequence for full-length mouse GDF15 preproprotein and annotation of CAP-GDF15 sequence as well as the canonical GDF15 hormone sequence. b–d Food intake (b), respiratory exchange ratio (RER, c), and ambulatory activity (d) of 12–16-week diet-induced obese male mice following a single treatment of CAP-GDF15 (50 mg/kg, intraperitoneal) or vehicle control. e–g Food intake (e), RER (f), and ambulatory activity (g) of 12–16-week diet-induced obese male mice following a single treatment of scrambled CAP-GDF15 (50 mg/kg, intraperitoneal, scrambled sequence: pGlu-[…]-NH2) or vehicle control. h, i 3-day food intake (h) and body weight (i) of 12–16-week diet-induced obese male mice following treatment with CAP-GDF15 or scrambled CAP-GDF15 (50 mg/kg/day, IP), or vehicle control. […] For (b-i), p values were calculated by two-way ANOVA. Source data are provided as a Source Data file.
Animal experiments were performed according to a procedure approved by the Stanford University Administrative Panel on Laboratory Animal Care. Mice were maintained in 12-h light-dark cycles at 22 °C and about 50% relative humidity and fed a standard irradiated rodent diet. Where indicated, a high-fat diet (D12492, Research Diets 60% kcal from fat) was used. Male C57BL/6 J (stock number 000664) and male C57BL/6 J DIO mice were purchased from the Jackson Laboratory (stock number 380050). For studies in high-fat diet-fed mice, peptides were dissolved in 18:1:1 (by volume) of saline:Kolliphor EL (Sigma Aldrich):DMSO and administered to mice by intraperitoneal injections at a volume of 10 µl/g at the indicated doses for the indicated times. For lipopolysacchardide injection, LPS (Sigma, #L2880-10MG) was dissolved in saline and administered to mice at a volume of 5 µl/g at indicated dose. For fasting, food was removed from mice for 16 h. For running, a six-lane Columbus Instruments animal treadmill (product 1055-SRM-D65) was used with following 1 h protocol: 10 min at 6 m/min, 50 min at 18 m/min, and increase every 2 min by 2 m/min for the last 10 minutes, all at 12° incline. For all treatment experiments, mice were mock injected with the vehicle for 3–5 days until body weights were stabilized. Heparin plasma was harvested by submandibular bleed. For all experiments, mice were randomly assigned to treatment groups. Experimenters were not blinded to groups.
For acute energy expenditure studies, food intake, RER, movement, VO2, and VCO2 were collected with CLAMS Oxymax Metabolic Cages. Mice were placed in individual metabolic cages for 24 hours prior to experiment. Mice were injected with either vehicle, 50 mg/kg CAP-GDF15, 50 mg/kg uncapped CAP-GDF15, or 50 mg/kg scrambled CAP-GDF15 at 5 pm at T = 0. […] All experiments were done with 3–5 month old DIO mice (Jackson, stock 380050), fed high-fat diet ad libitum.
(§1) Supplementary Figure 5. Additional measurements from metabolic chambers of mice treated with CAP-GDF15. a CAP-GDF15 plasma concentration after administration of CAP-GDF15 (50 mg/kg, intraperitoneal) or vehicle control. b-c VO2 (b) and VCO2 (c) of 12-16-week diet-induced obese male mice following a single treatment of CAP-GDF15 (50 mg/kg, intraperitoneal) or vehicle control. d-e VO2 (d) and VCO2 (e) of 12-16-week diet-induced obese male mice following a single treatment of scrambled CAP-GDF15 (50 mg/kg, intraperitoneal, scrambled sequence: p[…]-NH2) or vehicle control. f Acute food intake of 12-16-week diet-induced obese male mice following a single treatment of CAP-GDF15 (50 mg/kg, intraperitoneal), uncapped CAP-GDF15 (50 mg/kg, intraperitoneal), or vehicle control. For (a), N=3/group; (b-c), N=12/group; for (d-e), N=8/group; for (f), N=5/group.
(§2) For (a-f), injection occurred at time T=0 (5:00pm). Data are shown as means ± SEM. For (b-i), p values were calculated by two-way ANOVA. Source data are provided as a Source Data

[2] = CAP-GDF15 plasma concentration after administration; type: in vivo, mouse; conditions: for Plasma concentration after administration (Supplementary Figure 5a): 50 mg/kg, unit not given
Procedure: To test this possibility, we administered a single dose of CAP-GDF15 (50 mg/kg, intraperitoneally) to diet-induced obese mice and measured whole body parameters of energy balance in metabolic chambers. At this dose, concentrations of plasma CAP-GDF15 rose by 5-fold from baseline at 30 min post-administration (Supplementary Fig. 5A). […] A corresponding and expected suppression of respiratory exchange ratio (RER) was also observed (Fig. 5c).
as §1, §2

[3] = diet-induced obese male mice, N = 12/group

rise of plasma CAP-GDF15 concentration from baseline ([2]; 50 mg/kg intraperitoneal, 30 min post-administration, N = 3/group): ~ 5 fold and 5 fold
Plasma concentration after administration (Supplementary Figure 5a) ([2]; 0 minutes (same values as vehicle), animal 1): 2.565
Plasma concentration after administration (Supplementary Figure 5a) ([2]; 0 minutes (same values as vehicle), animal 2): 0.7876
Plasma concentration after administration (Supplementary Figure 5a) ([2]; 0 minutes (same values as vehicle), animal 3): 0.4564
Plasma concentration after administration (Supplementary Figure 5a) ([2]; 10 minutes, animal 1): 3.639
Plasma concentration after administration (Supplementary Figure 5a) ([2]; 10 minutes, animal 2): 4.514
Plasma concentration after administration (Supplementary Figure 5a) ([2]; 10 minutes, animal 3): 3.221
Plasma concentration after administration (Supplementary Figure 5a) ([2]; 30 minutes, animal 1): 2.641
Plasma concentration after administration (Supplementary Figure 5a) ([2]; 30 minutes, animal 2): 3.3984
Plasma concentration after administration (Supplementary Figure 5a) ([2]; 30 minutes, animal 3): 2.342
Plasma concentration after administration (Supplementary Figure 5a) ([2]; 60 minutes, animal 1): 0.6432
Plasma concentration after administration (Supplementary Figure 5a) ([2]; 60 minutes, animal 2): 0.7838
Plasma concentration after administration (Supplementary Figure 5a) ([2]; 60 minutes, animal 3): 0.7186
Cmax ([2]; mouse, plasma, ip, 50 mg/kg intraperitoneal, from approximately 1 nM endogenous level, read-out: maximum plasma concentration after dosing, as read from the figure by a reviewer): 4 nM
SMILES: CC(C)C[C@H](NC(=O)[C@@H]1CCC(=O)N1)C(=O)N[C@@H](CCC(=O)O)C(=O)N[C@@H](CC(C)C)C(=O)N[C@@H](CCCNC(=N)N)C(=O)N[C@@H](CC(C)C)C(=O)N[C@@H](CCCNC(=N)N)C(=O)N[C@H](C(=O)N[C@@H](C)C(=O)N[C@@H](C)C(=O)NCC(=O)N[C@@H](CCCNC(=N)N)C(N)=O)C(C)C [CAP-GDF15] ([pGlu]LELRLRVAAGR-NH2)
suppression of food intake compared to vehicle-treated mice ([1]; 12–16-week diet-induced obese male mice, 16 h after injection, N = 12 mice/group): ~ 60%
effect on carbon dioxide production (VCO2) [1, 3]: did not alter
effect on oxygen consumption (VO2) [1, 3]: did not alter
effect on movement (ambulatory activity) ([1]; diet-induced obese male mice, N = 12 mice/group): did not alter
effect on respiratory exchange ratio (RER) ([1]; diet-induced obese male mice, metabolic chambers): suppression
